Data reported in US20050043331A1, “Substituted 3-(2,5-disubstituted)pyridyl-4-aryl pyrroles for treating inflammatory diseases” (priority 2002, published 2005).
Where two headings read alike, the source gives them in different places.

Experiments:
[1] = test system: TNF-α; assay: In-vitro whole cell assay for TNF-α inhibition (LPS-stimulated PBMC, ELISA); type: cell-based; settings: TNF-α by ELISA
Experimental: Freshly obtained venous blood was anticoagulated with heparin, diluted with an equal volume of phosphate buffered saline (“PBS”) and placed in a sterile tube or other container. Aliquots (30 mL) of this mixture were transferred to centrifuge tubes, which were underlaid with Ficoll-Hypaque (15 mL). The prepared tubes were centrifuged at 400×g, without braking, for 30 min at room temperature. Approximately ½ to ⅔ of the platelet layer above the mononuclear cell band was removed with a pipette. The majority of the mononuclear cell layer was carefully removed using a pipette and these PBMC's were diluted with PBS and spun at 600×g for 15 min. The resulting PBMC's were washed with another portion of PBS and spun at 400×g for 10 min at room temperature. The recovered pellets were diluted in low endotoxin RPMI/1% FCS culture medium, and gave a cell concentration of 0.5-2.0×10^6 PMBC/ mL. A small volume of the suspension was removed for counting on a hemocytometer and the remaining preparation was centrifuged at 200×g for 15 min at room temperature. The recovered pelleted PMBC's were resuspended in RPMI/1% FCS to a concentration of 1.67×10^6/mL.
To run the assay, the PBMC suspension (180 μL) was transferred to duplicate wells of a 96-well flat-bottom microtiter plate and incubated for 1 h at 37° C. A solution of test compound (10 μL: prepared at 20× the desired final concentration) was added to each well and the plate was incubated for 1 h at 37° C. A solution (10 μL) of LPS in RPMI/1% FCS (200 ng/mL) was added and the wells were incubated overnight at 37° C. The supernate (100 μL) was removed from each well and diluted with RPMI/1% FCS (400 μL). The samples were analyzed for TNF-α using a commercial ELISA kit (Genzyme).

[2] = test system: TNF-α; assay: In vivo rodent assay for inhibition of LPS-induced TNF-α production; set-up: species or system Mice (BALB/cJ females); settings: 10 mg/kg oral; for inhibition in vivo at 10 mg/kg: Mus musculus, po
Experimental: Mice (BALB/cJ females, Jackson Laboratories) or rats (Lewis males, Charles River) were fasted for 30 min. The animals were dosed orally on a mg/kg basis at a range of times prior to being injected intraperitoneally with LPS at 1 mg/kg and returned to their cages for 1 h. Animals were anesthetized by CO2, exsanguinated by cardiac puncture and whole blood collected (0.1-0.7 mL). The blood was allowed to clot and serum was transferred to a centrifuge tube. This sample was centrifuged, and serum was collected, aliquoted and frozen at −80° C. Samples were tested by commercial ELISA's for TNF-α (Endogen for mouse TNF-α and Biosource for rat TNF-α).

[3] = 2 h, 2 h, read-out: Mouse 10 mg/kg % inhib 2 h
[4] = 0.5 h, 0.5 h, read-out: Mouse 10 mg/kg % inhib 0.5 h

IC50 [1] [µM]	Structure (SMILES)	inhibition in vivo at 10 mg/kg [2, 4] [%]	other results
0.032	COC(=O)c1c(-c2ccncc2)c(-c2ccc(F)cc2)c(C#CCCN2CCOCC2)n1C [Cpd 175]		inhibition in vivo at 10 mg/kg [2, 3]: -4%
0.443	COCC#Cc1c(-c2ccc(F)cc2)c(-c2ccncc2)c(C(=O)OC)n1C [Cpd 172]	-5	
0.055	COC(=O)c1c(-c2ccncc2)c(-c2ccc(F)cc2)cn1C [Cpd 141]	-56	
2.56	O=C1CCCn2c(NCCN3CCOCC3)c(-c3ccncc3)c(-c3ccc(F)cc3)c21 [Cpd 24, 1-(4-Fluorophenyl)-6,7-dihydro-3-[[2-(4-morpholinyl)ethyl]amino]-2-(4-pyridinyl)-8(5H)-indolizinone]	51	
1.02	COC(=O)c1c(-c2ccncc2)c(-c2ccc(F)cc2)c(NCCc2ccccc2)n1C [Cpd 152]	58	
0.326	COC(=O)C1CCn2cc(-c3ccncc3)c(-c3ccc(F)cc3)c2C1=O (stereo not shown) [Cpd 133]	-9	
0.101	OCc1[nH]cc(-c2ccc(F)cc2)c1-c1ccncc1 [Cpd 26, 4-(4-Fluorophenyl)-3-(4-pyridinyl)-1H-pyrrole-2-methanol]	-72	
0.07	CCn1cc(-c2ccncc2)c(-c2ccc(F)cc2)c1CO [Cpd 143]	48	
0.139	COC(=O)c1c(-c2ccc(F)cc2)c(-c2ccncc2)c(N2CCN(C3CCCC3)CC2)n1C [Cpd 125]	48.6	
0.209	CCNC(=O)c1[nH]cc(-c2ccc(F)cc2)c1-c1ccncc1 [Cpd 32, N-Ethyl-4-(4-fluorophenyl)-3-(4-pyridinyl)-1H-pyrrole-2-carboxamide]	-24	
0.096	CCOC(=O)c1[nH]cc(-c2ccncc2)c1-c1cccc(C(F)(F)F)c1 [Cpd 57]	-8	
1.03	Cn1cc(-c2ccncc2)c(-c2ccc(F)cc2)c1-c1ncc(-c2ccccc2)o1 [Cpd 36, 4-[4-(4-Fluorophenyl)-1-methyl-5-(5-phenyl-2-oxazolyl)-1H-pyrrol-3-yl]pyridine]	81	inhibition in vivo at 10 mg/kg [2, 3]: 35%
0.18	COC(=O)c1c(-c2ccncc2)c(-c2ccc(F)cc2)c(Br)n1C [Cpd 43, 5-Bromo-4-(4-fluorophenyl)-1-methyl-3-(4-pyridinyl)-1H-pyrrole-2-carboxylic acid methyl ester]	-6	
0.852	CN(C)CCn1cc(-c2ccncc2)c(-c2ccc(F)cc2)c1CO [Cpd 147]	20	
0.894	COC(=O)c1c(-c2ccncc2)c(-c2ccc(F)cc2)c(C#CCCO)n1C [Cpd 167]	30	
0.901	CCCN1CCN(c2c(-c3ccncc3)c(-c3ccc(F)cc3)c(C(=O)OC)n2C)CC1 [Cpd 127]		
	Cn1cc(-c2ccncc2)c(-c2ccc(F)cc2)c1C#N [Cpd 169]		Mouse 10 mg/kg % inhib 2 h ([2]; 2 h, 10 mg/kg): 49%
0.65	COC(=O)c1c(-c2ccc(F)cc2)c(-c2ccncc2)c(Nc2ccc3c(c2)N(C(C)=O)CC3)n1C [Cpd 166]		
0.003	CN(CCO)Cc1[nH]cc(-c2ccc(F)cc2)c1-c1ccncc1 [Cpd 180]		inhibition in vivo at 10 mg/kg [2, 3]: -8%
0.248	CCOC(=O)c1c(-c2ccc(F)cc2)c(-c2ccncc2)c(CCCOCc2ccccc2)n1C [Cpd 155]	51	
1.64	COC(=O)c1c(-c2ccc(F)cc2)c(-c2ccncc2)c(NCCNC(=O)OC(C)(C)C)n1C [Cpd 132]		
1.39	COC(=O)c1c(-c2ccc(F)cc2)c(-c2ccncc2)c(NCCN2CCCC2)n1C [Cpd 118]		
	COC(=O)C1CCn2c(I)c(-c3ccncc3)c(-c3ccc(F)cc3)c2C1=O (stereo not shown) [Cpd 136]	15	
0.208	Fc1ccc(-c2cn3c(c2-c2ccncc2)CNCC3)cc1 [Cpd 30, 7-(4-Fluorophenyl)-1,2,3,4-tetrahydro-8-(4-pyridinyl)-pyrrolo[1,2-a]pyrazine]	71	
1.49	COC(=O)c1c(-c2ccc(F)cc2)c(-c2ccncc2)c(NC(C)=O)n1C [Cpd 142]		
3.51	COC(=O)c1c(-c2ccncc2)c(-c2ccc(F)cc2)c(N(C)CCN2CCOCC2)n1C [Cpd 164]		
0.029	COC(=O)CCCn1c(NCCN2CCOCC2)c(-c2ccncc2)c(-c2ccc(F)cc2)c1C(=O)OC [Cpd 23a]		

IC50 [1] [µM]	Structure (SMILES)	inhibition in vivo at 10 mg/kg [2, 4] [%]	other results
	COC(=O)c1c(-c2ccc(F)cc2)c(-c2ccncc2)c(NCCCN2CCOCC2)n1C [Cpd 149]	64	
0.597	CC(=O)c1c(-c2ccc(F)cc2)c(-c2ccncc2)cn1C [Cpd 39, 1-[3-(4-Fluorophenyl)-1-methyl-4-(4-pyridinyl)-1H-pyrrol-2-yl]ethanone]		
0.145	COC(=O)c1c(-c2ccc(F)cc2)c(-c2ccncc2)c(NCCc2ccncc2)n1C [Cpd 154]		
5.28	COC(=O)CCn1c(C#CCCO)c(-c2ccncc2)c(-c2ccc(F)cc2)c1C(=O)OC [Cpd 150]		
1.31	COC(=O)c1c(-c2ccc(F)cc2)c(-c2ccncc2)c(NC2CCN(Cc3ccccc3)CC2)n1C [Cpd 120]		
0.183	COC(=O)c1c(-c2ccc(F)cc2)c(-c2ccncc2)c(N(C)CCN2CCSCC2)n1C [Cpd 162]		
	CC(=O)N1CCN(c2c(-c3ccncc3)c(-c3ccc(F)cc3)c(-c3nnco3)n2C)CC1 [Cpd 157]	19	
0.047	N#Cc1[nH]cc(-c2ccncc2)c1-c1ccc(F)cc1 [Cpd 158]		
1.69	COC(=O)c1c(-c2ccc(F)cc2)c(-c2ccncc2)c(NCCNC(C)=O)n1C [Cpd 135]		
0.186	CCOC(=O)c1c(-c2ccc(F)cc2)c(-c2ccncc2)c(CCCO)n1C [Cpd 17, 3-(4-Fluorophenyl)-5-(3-hydroxypropyl)-1-methyl-4-(4-pyridinyl)-1H-pyrrole-2-carboxylic acid ethyl ester]		
	COC(=O)c1c(-c2ccc(F)cc2)c(-c2ccncc2)c(-c2ccncc2)n1C [Cpd 137]	51	
	COC(=O)c1c(-c2ccc(F)cc2)c(-c2ccncc2)c(NCCN2CCNCC2)n1C [Cpd 140]	77	
	COC(=O)c1c(-c2ccc(F)cc2)c(-c2ccncc2)cn1CCN(C)C [Cpd 146]	-32	
0.692	COC(=O)c1c(-c2ccc(F)cc2)c(-c2ccncc2)cn1CCO [Cpd 165]		
0.351	Cn1c(C#N)c(-c2ccc(F)cc2)c(-c2ccncc2)c1NCCN1CCOCC1 [Cpd 171]		
0.573	COC(=O)c1c(-c2ccc(F)cc2)c(-c2ccncc2)c(N2CCN(CC3CCCCC3)CC2)n1C [Cpd 130]		
	CCCc1c(-c2ccnc(N[C@@H](C)c3ccccc3)n2)c(-c2ccc(F)cc2)cn1C(=O)OC(C)(C)C [Cpd 49]	-79	
0.589	CCCn1c(NCCN2CCOCC2)c(-c2ccncc2)c(-c2ccc(F)cc2)c1C(=O)OC [Cpd 153]		
0.021	COC(=O)c1c(-c2ccc(F)cc2)c(-c2ccncc2)c(Nc2cccc(NC(C)=O)c2)n1C [Cpd 174]		
0.16	O=C1OCCn2cc(-c3ccncc3)c(-c3ccc(F)cc3)c21 [Cpd 46, 8-(4-Fluorophenyl)-3,4-dihydro-7-(4-pyridinyl)-1H-pyrrolo[2,1-c][1,4]oxazin-1-one]		
1.98	COC(=O)c1c(-c2ccc(F)cc2)c(-c2ccncc2)c(N2CCN(C(C)C)CC2)n1C [Cpd 126]		
1.45	CC(O)c1c(-c2ccc(F)cc2)c(-c2ccncc2)cn1C (stereo not shown) [Cpd 40, 3-(4-Fluorophenyl)-[…], 1-dimethyl-4-(4-pyridinyl)-1H-pyrrole-2-methanol]		
1.66	COC(=O)c1c(-c2ccc(F)cc2)c(-c2ccncc2)c(N2CCC(NC(=O)OC(C)(C)C)C2)n1C (stereo not shown) [Cpd 110]		
1.08	CCCCNCc1c(-c2ccncc2)c(-c2ccc(F)cc2)cn1C [Cpd 123]		
5.84	CON(C)C(=O)c1c(-c2ccc(F)cc2)c(-c2ccncc2)cn1C [Cpd 37, 3-(4-Fluorophenyl)-N-methoxy-N,1-dimethyl-4-(4-pyridinyl)-1H-pyrrole-2-carboxamide]		
	Cn1c(CO)c(-c2ccc(F)cc2)c(-c2ccncc2)c1N1CCN(C(=O)OC(C)(C)C)CC1 [Cpd 151]	83	
0.66	Cn1c(C(O)c2ccccc2)c(-c2ccc(F)cc2)c(-c2ccncc2)c1N1CCNCC1 (stereo not shown) [Cpd 117]		
